# Reference: the supplement of paper PMC10307832
# Compound: CC(C)N(CCCNC(=O)Nc1ccc(C(C)(C)C)cc1)C[C@H]1O[C@@H](n2ccc3c(N)ncnc32)[C@H](O)[C@@H]1O + Nc1nc2[nH]cc(CCc3ccc(C(=O)N[C@@H](CCC(=O)O)C(=O)O)cc3)c2c(=O)[nH]1 [Pemetrexed] (partner 0.2 µM)
# Experiment: relative viability (nuclei count vs DMSO), 5 days (fraction); higher = more cells survive
# Details: first compound 0.08 µM
# In short: (§1)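 Cells from lung cancer lines were seeded into 1536-well plates and, one day later, dosed by pin tool. Treatments were either a single drug or a fixed dose of an anchor drug with five library-drug doses (not always all listed) in √10 steps. After 5 days, nuclei were stained in a one-step fixation (final 0.05% Triton X-100, 1% formaldehyde, 1 ug/ml Hoechst) and counted on 4× images, and relative viability is the treated-to-vehicle nuclei ratio, as the median of duplicate plates.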
row,Cell Line,relative viability
1,NCI-H2342,0.807
2,PC-14,0.149
3,NCI-H1650,0.306
4,NCI-H2009,0.994
5,NCI-H1993,0.564
6,NCI-H520,0.614
7,PC-3 [JPC-3],1.06
8,LCLC-103H,0.417
9,NCI-H647,0.197
10,NCI-H2228,0.336
11,EMC-BAC-2,0.439
12,NCI-H2087,0.718
13,HCC-366,0.14
14,NCI-H1666,0.895
15,NCI-H650,0.882
16,NCI-H2126,0.657
17,NCI-H1648,0.741
18,SK-MES-1,1.05
19,H3255,0.569
20,COR-L23,0.188
21,HCC-44,0.662
22,NCI-H522,0.991
23,SW 900,0.472
24,NCI-H661,0.91
25,NCI-H1792,0.769
26,NCI-H1563,0.774
27,NCI-H358,0.183

# Same assay, conditions: first compound 0.253 µM
row,Cell Line,relative viability
1,NCI-H2342,0.722
2,PC-14,0.171
3,NCI-H1650,0.395
4,NCI-H2009,1.05
5,NCI-H520,0.743
6,PC-3 [JPC-3],1.08
7,LCLC-103H,0.454
8,NCI-H647,0.164
9,NCI-H2228,0.326
10,EMC-BAC-2,0.465
11,NCI-H2087,0.653
12,HCC-366,0.266
13,NCI-H1666,0.909
14,NCI-H650,0.884
15,LK-2,0.252
16,NCI-H2126,0.619
17,NCI-H1648,0.81
18,SK-MES-1,0.915
19,H3255,0.538
20,COR-L23,0.203
21,HCC-44,0.654
22,NCI-H522,0.944
23,SW 900,0.469
24,NCI-H661,0.892
25,NCI-H1563,0.585
26,NCI-H358,0.159

# Same assay, conditions: first compound 0.8 µM
row,Cell Line,relative viability
1,NCI-H2342,0.729
2,PC-14,0.138
3,NCI-H1650,0.34
4,NCI-H2009,0.97
5,NCI-H1993,0.533
6,NCI-H520,0.663
7,LCLC-103H,0.452
8,NCI-H647,0.143
9,NCI-H2228,0.313
10,EMC-BAC-2,0.432
11,NCI-H2087,0.714
12,HCC-366,0.129
13,NCI-H1666,0.919
14,NCI-H650,0.908
15,LK-2,0.336
16,NCI-H2126,0.696
17,NCI-H1648,0.472
18,SK-MES-1,0.819
19,H3255,0.61
20,COR-L23,0.202
21,HCC-44,0.539
22,NCI-H522,0.904
23,NCI-H661,0.894
24,NCI-H1792,0.697
25,NCI-H1563,0.795
26,NCI-H358,0.162

# Same assay, conditions: first compound 2.53 µM
row,Cell Line,relative viability
1,NCI-H2342,0.718
2,PC-14,0.141
3,NCI-H1650,0.35
4,NCI-H2009,0.975
5,NCI-H1993,0.638
6,NCI-H520,0.787
7,PC-3 [JPC-3],1.09
8,LCLC-103H,0.413
9,NCI-H647,0.194
10,NCI-H2228,0.298
11,EMC-BAC-2,0.431
12,NCI-H2087,0.735
13,HCC-366,0.18
14,NCI-H1666,0.796
15,NCI-H650,0.742
16,LK-2,0.293
17,NCI-H2126,0.665
18,NCI-H1648,0.6
19,SK-MES-1,1.03
20,H3255,0.562
21,COR-L23,0.2
22,HCC-44,0.688
23,NCI-H522,1.01
24,SW 900,0.475
25,NCI-H661,0.977
26,NCI-H1792,0.882
27,NCI-H1563,0.774
28,NCI-H358,0.168

# Same assay, conditions: first compound 8 µM
row,Cell Line,relative viability
1,NCI-H2342,0.801
2,PC-14,0.163
3,NCI-H1650,0.277
4,NCI-H2009,0.953
5,NCI-H1993,0.543
6,NCI-H520,0.7
7,PC-3 [JPC-3],1.08
8,LCLC-103H,0.51
9,NCI-H647,0.176
10,NCI-H2228,0.337
11,EMC-BAC-2,0.488
12,NCI-H2087,0.662
13,HCC-366,0.166
14,NCI-H1666,0.819
15,NCI-H650,1.01
16,LK-2,0.279
17,NCI-H2126,0.691
18,NCI-H1648,0.942
19,SK-MES-1,0.912
20,H3255,0.548
21,COR-L23,0.21
22,HCC-44,0.586
23,NCI-H522,1.04
24,SW 900,0.441
25,NCI-H661,0.912
26,NCI-H1792,0.747
27,NCI-H1563,0.782
28,NCI-H358,0.166

# Compound: CC(C)N(CCCNC(=O)Nc1ccc(C(C)(C)C)cc1)C[C@H]1O[C@@H](n2ccc3c(N)ncnc32)[C@H](O)[C@@H]1O + CC1(C)CCC(c2ccc(Cl)cc2)=C(CN2CCN(c3ccc(C(=O)NS(=O)(=O)c4ccc(N[C@H](CCN5CCOCC5)CSc5ccccc5)c(S(=O)(=O)C(F)(F)F)c4)cc3)CC2)C1 [Navitoclax] (partner 0.5 µM)
# Experiment: as above
# Details: first compound 0.08 µM
# In short: as §1
row,Cell Line,relative viability
1,PC-14,1
2,NCI-H1650,1.11
3,EBC-1,0.406
4,NCI-H1703,1.13
5,NCI-H2009,1.19
6,NCI-H1993,0.944
7,NCI-H520,1.04
8,PC-3 [JPC-3],0.784
9,NCI-H647,0.894
10,NCI-H2228,1.1
11,EMC-BAC-2,1.14
12,NCI-H2087,1.04
13,Calu-6,0.887
14,HCC-366,1.08
15,NCI-H1666,0.946
16,LK-2,0.848
17,NCI-H2126,0.887
18,SK-MES-1,1.12
19,H3255,0.518
20,COR-L23,0.977
21,IA-LM,0.693
22,HCC-44,0.952
23,A549,1.17
24,NCI-H1299,1.07
25,NCI-H1792,0.634
26,NCI-H727,0.416

# Same assay, conditions: first compound 0.253 µM
row,Cell Line,relative viability
1,PC-14,0.996
2,NCI-H1650,1.17
3,EBC-1,0.387
4,NCI-H1703,1.14
5,NCI-H2009,1.17
6,NCI-H1993,1.03
7,NCI-H520,1.15
8,PC-3 [JPC-3],0.752
9,EMC-BAC-2,1.15
10,NCI-H2087,1.11
11,Calu-6,0.87
12,HCC-366,1.05
13,NCI-H1666,0.912
14,LK-2,0.775
15,NCI-H2126,0.825
16,SK-MES-1,1.26
17,H3255,0.555
18,COR-L23,0.919
19,IA-LM,0.788
20,HCC-44,1.1
21,A549,1.22
22,NCI-H1299,1.05
23,NCI-H1792,0.589
24,NCI-H727,0.389

# Same assay, conditions: first compound 0.8 µM
row,Cell Line,relative viability
1,PC-14,0.946
2,EBC-1,0.383
3,NCI-H1703,1.61
4,NCI-H2009,1.19
5,NCI-H1993,0.872
6,NCI-H520,1.1
7,PC-3 [JPC-3],0.807
8,NCI-H647,1.07
9,NCI-H2228,0.916
10,EMC-BAC-2,1.13
11,NCI-H2087,0.896
12,Calu-6,0.848
13,HCC-366,0.928
14,NCI-H1666,1.03
15,LK-2,0.929
16,NCI-H2126,0.851
17,SK-MES-1,1.28
18,H3255,0.545
19,COR-L23,0.982
20,IA-LM,0.951
21,HCC-44,0.915
22,A549,1.25
23,NCI-H1299,1.02
24,NCI-H1792,0.623
25,NCI-H727,0.499

# Same assay, conditions: first compound 2.53 µM
row,Cell Line,relative viability
1,PC-14,1.03
2,NCI-H1650,1.14
3,EBC-1,0.363
4,NCI-H1703,1.27
5,NCI-H2009,1.17
6,NCI-H1993,0.807
7,NCI-H520,1.05
8,PC-3 [JPC-3],0.797
9,NCI-H647,1.06
10,NCI-H2228,1.32
11,EMC-BAC-2,1.14
12,NCI-H2087,1.14
13,Calu-6,0.902
14,HCC-366,0.898
15,NCI-H1666,0.934
16,LK-2,0.768
17,NCI-H2126,0.848
18,SK-MES-1,1.18
19,H3255,0.367
20,COR-L23,1.01
21,IA-LM,0.72
22,HCC-44,0.961
23,A549,1.18
24,NCI-H1299,1.06
25,NCI-H1792,0.591
26,NCI-H727,0.534

# Same assay, conditions: first compound 8 µM
row,Cell Line,relative viability
1,PC-14,0.847
2,NCI-H1650,1
3,EBC-1,0.388
4,NCI-H1703,0.89
5,NCI-H2009,1.13
6,NCI-H1993,0.959
7,NCI-H520,0.929
8,PC-3 [JPC-3],0.7
9,NCI-H647,1.05
10,NCI-H2228,0.711
11,EMC-BAC-2,1.08
12,NCI-H2087,0.989
13,Calu-6,0.841
14,HCC-366,0.942
15,NCI-H1666,0.953
16,LK-2,0.711
17,NCI-H2126,0.776
18,SK-MES-1,1.19
19,H3255,0.551
20,COR-L23,0.963
21,IA-LM,0.586
22,HCC-44,1.03
23,A549,1.14
24,NCI-H1299,1.02
25,NCI-H1792,0.571
